How the values were obtained:
Experiment in all cases: Kinase profiling
Type in all cases: biochemical
[1] = biological target: T1, SYK (Homo sapiens, UniProt P43405); settings: read-out: Percent inhibition, SYK; for inhibition at 1 µM: Conc 1000 nM
T1 construct: purchased Ambit (KINOMEscan)
Description: (§1) ; Fig. 5a; Supplementary Table 1). We focused on Dyrk1a because other kinases inhibited by aminopyrazine compounds were not highly expressed in β-cells and because Dyrk1a was known to inhibit the NFAT pathway that was previously implicated in β-cell proliferation. We used molecular modelling to dock the aminopyrazine compounds into the published structure of Dyrk1a (protein databank accession code 2vx3.pdb; Fig. 5b).

[2] = biological target: T2, PI3Ka (Homo sapiens, UniProt P42336); settings: Conc 1000 nM; read-out: Percent inhibition, PI3Ka
T2 construct: purchased Ambit (KINOMEscan)
Description: as §1

[3] = biological target: T3, Abl (Homo sapiens, UniProt P00519); settings: Conc 1000 nM; read-out: Percent inhibition, Abl
T3 construct: purchased Ambit KINOMEscan
Description: as §1

[4] = biological target: T4, ROS (Homo sapiens, UniProt P08922); settings: read-out: Percent inhibition, ROS; for inhibition at 1 µM: Conc 1000 nM
T4 construct: purchased Ambit (KINOMEscan)
Description: as §1

[5] = biological target: T5, FMS (CSF1R) (Homo sapiens, UniProt P07333); settings: Conc 1000 nM; read-out: Percent inhibition, FMS (CSF1R)
T5 construct: purchased Ambit KINOMEscan
Description: as §1

[6] = biological target: T6, InsR (Homo sapiens, UniProt P06213); settings: Conc 1000 nM; read-out: Percent inhibition, InsR
T6 construct: purchased Ambit KINOMEscan
Description: as §1

[7] = biological target: T7, Flt-3 (Homo sapiens, UniProt P36888); settings: read-out: Percent inhibition, Flt-3; for inhibition at 1 µM: Conc 1000 nM
T7 construct: purchased Ambit KINOMEscan
T7 sequence (P36888 27-993): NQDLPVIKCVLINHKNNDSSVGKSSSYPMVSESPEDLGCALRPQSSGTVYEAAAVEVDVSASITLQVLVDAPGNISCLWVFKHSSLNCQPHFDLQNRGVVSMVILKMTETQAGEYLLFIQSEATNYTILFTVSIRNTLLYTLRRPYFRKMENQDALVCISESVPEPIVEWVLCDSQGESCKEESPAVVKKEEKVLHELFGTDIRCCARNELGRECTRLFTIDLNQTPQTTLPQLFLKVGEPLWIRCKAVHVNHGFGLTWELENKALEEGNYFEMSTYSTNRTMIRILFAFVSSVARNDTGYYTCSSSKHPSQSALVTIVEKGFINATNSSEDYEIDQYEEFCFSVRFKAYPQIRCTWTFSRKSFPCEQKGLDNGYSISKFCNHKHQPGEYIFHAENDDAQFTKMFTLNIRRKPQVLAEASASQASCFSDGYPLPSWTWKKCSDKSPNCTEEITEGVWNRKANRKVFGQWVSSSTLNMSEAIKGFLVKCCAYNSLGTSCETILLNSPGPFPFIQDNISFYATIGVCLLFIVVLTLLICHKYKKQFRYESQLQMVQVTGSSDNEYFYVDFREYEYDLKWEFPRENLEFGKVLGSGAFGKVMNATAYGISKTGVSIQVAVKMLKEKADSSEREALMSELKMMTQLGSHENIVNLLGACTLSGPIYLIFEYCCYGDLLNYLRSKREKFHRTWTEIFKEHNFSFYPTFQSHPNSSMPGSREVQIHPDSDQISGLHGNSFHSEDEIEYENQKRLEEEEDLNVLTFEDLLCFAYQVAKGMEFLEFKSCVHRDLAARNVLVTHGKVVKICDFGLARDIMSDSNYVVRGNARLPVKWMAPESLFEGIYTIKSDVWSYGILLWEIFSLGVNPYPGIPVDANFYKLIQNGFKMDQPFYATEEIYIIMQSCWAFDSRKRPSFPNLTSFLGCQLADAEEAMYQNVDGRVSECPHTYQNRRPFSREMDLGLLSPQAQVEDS
Description: as §1

[8] = biological target: T8, JNK2 (Homo sapiens, UniProt P45984); settings: Conc 1000 nM; read-out: Percent inhibition, JNK2
T8 construct: purchased Ambit KINOMEscan
Description: as §1

[9] = biological target: T9, p38alpha (MAPK14) (Homo sapiens, UniProt Q16539); settings: Conc 1000 nM; read-out: Percent inhibition, p38alpha (MAPK14)
T9 construct: purchased Ambit (KINOMEscan)
Description: as §1

[10] = biological target: T10, Axl (Homo sapiens, UniProt P30530); settings: read-out: Percent inhibition, Axl; for inhibition at 1 µM: Conc 1000 nM
T10 construct: purchased Ambit KINOMEscan
T10 sequence (P30530 26-894): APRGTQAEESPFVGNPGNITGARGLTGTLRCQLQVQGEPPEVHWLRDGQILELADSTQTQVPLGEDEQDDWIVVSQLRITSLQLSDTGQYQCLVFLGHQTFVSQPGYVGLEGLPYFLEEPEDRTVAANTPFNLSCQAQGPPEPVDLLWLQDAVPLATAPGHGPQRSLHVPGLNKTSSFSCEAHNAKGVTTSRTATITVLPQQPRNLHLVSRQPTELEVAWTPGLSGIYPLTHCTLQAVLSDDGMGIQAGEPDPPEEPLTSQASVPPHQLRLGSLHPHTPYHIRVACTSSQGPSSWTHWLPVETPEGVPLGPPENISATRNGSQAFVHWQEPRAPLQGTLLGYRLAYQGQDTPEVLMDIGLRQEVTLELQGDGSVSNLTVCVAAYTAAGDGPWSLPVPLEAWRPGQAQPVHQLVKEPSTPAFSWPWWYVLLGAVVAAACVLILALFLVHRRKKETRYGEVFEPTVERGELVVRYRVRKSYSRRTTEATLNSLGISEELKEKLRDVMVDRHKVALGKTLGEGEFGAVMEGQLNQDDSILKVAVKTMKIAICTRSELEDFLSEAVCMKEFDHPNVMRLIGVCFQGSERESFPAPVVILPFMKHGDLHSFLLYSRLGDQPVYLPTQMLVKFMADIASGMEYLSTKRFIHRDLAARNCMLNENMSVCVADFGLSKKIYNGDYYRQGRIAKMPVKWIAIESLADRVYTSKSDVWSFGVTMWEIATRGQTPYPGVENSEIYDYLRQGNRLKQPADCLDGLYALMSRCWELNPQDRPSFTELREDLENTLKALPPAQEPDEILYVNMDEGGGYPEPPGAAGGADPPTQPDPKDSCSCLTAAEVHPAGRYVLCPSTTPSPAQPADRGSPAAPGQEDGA
Description: as §1

[11] = biological target: T11, ROCK1 (Homo sapiens, UniProt Q13464); settings: Conc 1000 nM; read-out: Percent inhibition, ROCK1
T11 construct: purchased Ambit (KINOMEscan)
Description: as §1

[12] = biological target: T12, FGFR3 (Homo sapiens, UniProt P22607); settings: Conc 1000 nM; read-out: Percent inhibition, FGFR3
T12 construct: purchased Ambit KINOMEscan
Description: as §1

[13] = biological target: T13, BMX (Homo sapiens, UniProt P51813); settings: Conc 1000 nM; read-out: Percent inhibition, BMX
T13 construct: purchased Ambit KINOMEscan
Description: as §1

T4 sequence (P08922 28-2347): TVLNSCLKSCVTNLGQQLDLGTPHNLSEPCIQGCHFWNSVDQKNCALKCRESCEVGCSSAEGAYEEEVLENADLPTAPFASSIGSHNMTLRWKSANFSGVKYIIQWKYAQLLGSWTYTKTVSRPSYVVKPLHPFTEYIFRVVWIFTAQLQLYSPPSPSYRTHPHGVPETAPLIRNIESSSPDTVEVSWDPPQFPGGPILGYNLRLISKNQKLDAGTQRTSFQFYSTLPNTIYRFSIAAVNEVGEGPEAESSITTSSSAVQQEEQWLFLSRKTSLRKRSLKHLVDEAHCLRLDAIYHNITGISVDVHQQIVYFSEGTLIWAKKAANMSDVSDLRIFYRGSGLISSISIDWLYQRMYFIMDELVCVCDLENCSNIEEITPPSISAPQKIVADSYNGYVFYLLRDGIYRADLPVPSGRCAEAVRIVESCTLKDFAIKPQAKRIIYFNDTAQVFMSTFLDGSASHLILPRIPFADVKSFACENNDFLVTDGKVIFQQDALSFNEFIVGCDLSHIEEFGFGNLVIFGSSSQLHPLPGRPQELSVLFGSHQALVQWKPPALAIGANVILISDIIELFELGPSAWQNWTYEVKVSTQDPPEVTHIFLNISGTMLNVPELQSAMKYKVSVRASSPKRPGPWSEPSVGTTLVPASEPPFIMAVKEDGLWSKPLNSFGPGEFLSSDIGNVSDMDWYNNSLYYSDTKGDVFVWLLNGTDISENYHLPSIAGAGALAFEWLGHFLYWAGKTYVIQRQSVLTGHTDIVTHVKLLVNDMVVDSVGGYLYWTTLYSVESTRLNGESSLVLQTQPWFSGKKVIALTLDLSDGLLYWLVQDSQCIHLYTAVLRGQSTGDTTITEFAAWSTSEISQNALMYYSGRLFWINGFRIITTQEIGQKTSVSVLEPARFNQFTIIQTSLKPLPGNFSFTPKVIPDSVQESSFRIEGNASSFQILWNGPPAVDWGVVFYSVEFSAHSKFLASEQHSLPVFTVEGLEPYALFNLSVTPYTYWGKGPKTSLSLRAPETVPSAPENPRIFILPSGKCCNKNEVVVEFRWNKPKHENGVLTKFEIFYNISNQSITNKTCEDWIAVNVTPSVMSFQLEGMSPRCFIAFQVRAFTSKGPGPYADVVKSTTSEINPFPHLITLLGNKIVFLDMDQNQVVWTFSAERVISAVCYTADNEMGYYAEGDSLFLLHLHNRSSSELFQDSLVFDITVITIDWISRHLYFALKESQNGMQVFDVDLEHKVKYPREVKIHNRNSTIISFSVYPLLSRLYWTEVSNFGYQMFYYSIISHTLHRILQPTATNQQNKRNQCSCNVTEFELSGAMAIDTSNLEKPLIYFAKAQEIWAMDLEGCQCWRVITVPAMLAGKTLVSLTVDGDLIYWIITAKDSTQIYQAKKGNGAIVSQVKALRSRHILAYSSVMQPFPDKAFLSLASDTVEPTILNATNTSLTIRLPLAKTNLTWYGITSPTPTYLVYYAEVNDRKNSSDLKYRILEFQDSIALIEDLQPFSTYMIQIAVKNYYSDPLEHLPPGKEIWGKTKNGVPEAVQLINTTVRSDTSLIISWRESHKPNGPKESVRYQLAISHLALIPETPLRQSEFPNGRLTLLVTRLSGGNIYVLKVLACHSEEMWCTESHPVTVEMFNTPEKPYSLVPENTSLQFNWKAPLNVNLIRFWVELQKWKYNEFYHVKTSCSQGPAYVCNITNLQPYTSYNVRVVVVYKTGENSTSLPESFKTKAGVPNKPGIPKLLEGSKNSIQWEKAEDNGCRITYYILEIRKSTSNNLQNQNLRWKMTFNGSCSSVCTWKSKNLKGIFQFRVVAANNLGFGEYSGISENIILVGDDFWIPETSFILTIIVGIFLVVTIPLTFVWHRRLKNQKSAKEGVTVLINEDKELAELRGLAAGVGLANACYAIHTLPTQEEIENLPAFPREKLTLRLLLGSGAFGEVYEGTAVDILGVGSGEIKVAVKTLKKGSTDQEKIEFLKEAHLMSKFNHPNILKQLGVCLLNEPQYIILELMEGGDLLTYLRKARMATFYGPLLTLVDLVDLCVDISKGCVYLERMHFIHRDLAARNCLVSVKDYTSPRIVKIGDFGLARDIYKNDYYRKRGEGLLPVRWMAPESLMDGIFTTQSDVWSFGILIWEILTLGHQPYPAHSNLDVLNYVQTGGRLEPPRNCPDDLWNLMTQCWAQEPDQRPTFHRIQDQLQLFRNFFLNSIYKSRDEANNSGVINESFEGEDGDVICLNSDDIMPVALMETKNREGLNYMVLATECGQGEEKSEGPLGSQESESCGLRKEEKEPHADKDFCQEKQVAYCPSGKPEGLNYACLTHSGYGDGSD
T2 sequence (P42336 whole entry): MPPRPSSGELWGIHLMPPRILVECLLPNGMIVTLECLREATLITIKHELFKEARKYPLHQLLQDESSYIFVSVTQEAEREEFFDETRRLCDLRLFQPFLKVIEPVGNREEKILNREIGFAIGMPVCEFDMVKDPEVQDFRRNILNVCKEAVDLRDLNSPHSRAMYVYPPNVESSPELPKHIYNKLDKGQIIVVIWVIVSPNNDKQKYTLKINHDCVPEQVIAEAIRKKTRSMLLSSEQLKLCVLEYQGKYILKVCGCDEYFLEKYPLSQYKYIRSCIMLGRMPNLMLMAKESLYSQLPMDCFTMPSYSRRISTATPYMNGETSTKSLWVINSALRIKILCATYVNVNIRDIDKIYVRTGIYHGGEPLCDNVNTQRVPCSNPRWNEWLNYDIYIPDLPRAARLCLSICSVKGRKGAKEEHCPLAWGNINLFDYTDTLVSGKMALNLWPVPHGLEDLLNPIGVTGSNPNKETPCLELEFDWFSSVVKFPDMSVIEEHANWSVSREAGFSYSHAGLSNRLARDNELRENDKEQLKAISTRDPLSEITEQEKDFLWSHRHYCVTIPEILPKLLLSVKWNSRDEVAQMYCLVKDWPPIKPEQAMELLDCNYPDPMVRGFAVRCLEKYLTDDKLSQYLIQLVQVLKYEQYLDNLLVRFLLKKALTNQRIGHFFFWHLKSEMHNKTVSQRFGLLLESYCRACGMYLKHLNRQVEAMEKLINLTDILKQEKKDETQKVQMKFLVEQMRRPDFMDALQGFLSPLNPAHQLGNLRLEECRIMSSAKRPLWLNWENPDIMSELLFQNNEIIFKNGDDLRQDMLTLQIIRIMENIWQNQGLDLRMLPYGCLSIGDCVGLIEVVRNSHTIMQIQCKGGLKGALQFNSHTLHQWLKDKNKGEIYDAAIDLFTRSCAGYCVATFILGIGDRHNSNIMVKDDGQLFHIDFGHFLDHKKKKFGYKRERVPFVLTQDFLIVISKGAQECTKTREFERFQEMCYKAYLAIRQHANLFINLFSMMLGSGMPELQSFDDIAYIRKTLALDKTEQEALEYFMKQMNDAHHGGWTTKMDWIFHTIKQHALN
T2 sequence (P27986 whole entry partner): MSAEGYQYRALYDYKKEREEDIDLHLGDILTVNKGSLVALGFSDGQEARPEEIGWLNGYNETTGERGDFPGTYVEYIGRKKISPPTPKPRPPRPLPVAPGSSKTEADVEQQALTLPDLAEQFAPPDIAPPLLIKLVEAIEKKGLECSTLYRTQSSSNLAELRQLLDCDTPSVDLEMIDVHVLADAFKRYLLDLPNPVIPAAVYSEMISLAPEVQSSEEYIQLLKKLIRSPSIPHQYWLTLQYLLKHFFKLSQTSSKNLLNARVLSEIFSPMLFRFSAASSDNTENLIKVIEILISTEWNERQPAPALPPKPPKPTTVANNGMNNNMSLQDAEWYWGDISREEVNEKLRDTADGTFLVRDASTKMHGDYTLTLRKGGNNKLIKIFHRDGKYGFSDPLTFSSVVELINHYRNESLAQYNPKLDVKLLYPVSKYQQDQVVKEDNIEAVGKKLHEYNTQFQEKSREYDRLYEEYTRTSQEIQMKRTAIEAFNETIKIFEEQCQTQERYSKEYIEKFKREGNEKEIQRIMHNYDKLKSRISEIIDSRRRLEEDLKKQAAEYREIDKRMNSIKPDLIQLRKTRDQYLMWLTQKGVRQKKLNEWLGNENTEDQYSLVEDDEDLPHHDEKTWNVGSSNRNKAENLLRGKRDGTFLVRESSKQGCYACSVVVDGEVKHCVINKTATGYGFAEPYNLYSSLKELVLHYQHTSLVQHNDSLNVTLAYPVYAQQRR
T8 sequence (P45984 whole entry): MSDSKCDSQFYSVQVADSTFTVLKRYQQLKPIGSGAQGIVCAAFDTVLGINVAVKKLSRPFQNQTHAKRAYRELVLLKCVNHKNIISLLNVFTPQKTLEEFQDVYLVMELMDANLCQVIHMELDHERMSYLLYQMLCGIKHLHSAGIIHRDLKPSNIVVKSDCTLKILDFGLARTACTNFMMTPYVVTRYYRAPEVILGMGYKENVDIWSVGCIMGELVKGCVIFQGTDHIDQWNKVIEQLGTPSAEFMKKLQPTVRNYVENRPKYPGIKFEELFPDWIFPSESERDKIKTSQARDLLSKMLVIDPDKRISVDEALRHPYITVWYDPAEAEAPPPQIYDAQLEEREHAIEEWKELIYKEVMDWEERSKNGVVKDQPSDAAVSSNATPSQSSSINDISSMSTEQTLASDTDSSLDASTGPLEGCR
T9 sequence (Q16539 whole entry): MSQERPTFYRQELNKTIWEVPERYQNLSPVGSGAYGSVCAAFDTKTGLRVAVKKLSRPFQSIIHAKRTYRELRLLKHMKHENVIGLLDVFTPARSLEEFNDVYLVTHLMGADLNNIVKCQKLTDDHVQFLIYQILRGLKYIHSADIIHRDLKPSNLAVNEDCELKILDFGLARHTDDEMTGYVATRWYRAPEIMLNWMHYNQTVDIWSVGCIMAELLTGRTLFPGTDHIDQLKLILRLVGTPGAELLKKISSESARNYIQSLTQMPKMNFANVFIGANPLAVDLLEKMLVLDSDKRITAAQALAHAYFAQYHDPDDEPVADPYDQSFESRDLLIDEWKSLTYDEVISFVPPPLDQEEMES

Compound | inhibition at 0.2 µM ([1]; Conc 200 nM) | inhibition at 1 µM [1] | inhibition at 1 µM [2] | inhibition at 1 µM [3] | inhibition at 0.2 µM ([4]; Conc 200 nM) | inhibition at 1 µM [4] | inhibition at 1 µM [5] | inhibition at 1 µM [6] | inhibition at 0.2 µM ([7]; Conc 200 nM) | inhibition at 1 µM [7] | inhibition at 1 µM [8] | inhibition at 1 µM [9] | inhibition at 0.2 µM ([10]; Conc 200 nM) | inhibition at 1 µM [10] | inhibition at 1 µM [11] | inhibition at 1 µM [12] | inhibition at 1 µM [13]
CC(C)Oc1ccc(F)c(-c2cnc(N)c(C(=O)Nc3cnccc3N3CCC[C@@H](C(=O)O)C3)n2)c1 [GNF4877] | 89% | 95% | 31% | 66% | 71% | 97% | 72% | 51% | 36% | 86% | 51% | 6% | 74% | 94% | 36% | 32% | 43%
Nc1ncc(-c2ccccc2)nc1C(=O)Nc1cnccc1N1CCC(C(=O)O)CC1 [GNF7156] | – | 93% | 2% | 90% | – | 96% | 78% | 24% | – | 64% | 68% | 9% | – | 88% | 9% | 60% | 88%

— article PMC4639830, “Inhibition of DYRK1A and GSK3B induces human β-cell proliferation” (Nature Communications, 2015)
